Measured values from PubChem BioAssay (NCI).
Values joined by “and” are separate entries in the source; they are usually repeats but may differ in a detail not shown here. Equal entries are not always repeated.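 Five concentrations, 48 hours, 96-well plates. GI50 = concentration required for 50% inhibition of growth. Definition used: TGI = concentration required for complete inhibition of growth.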

Tests used:
Assay in all cases: NCI tumour cell line growth inhibition, 48 h
HOP-62 NSCLC = tested on: HOP-62 NSCLC
PC-3 prostate = tested on: PC-3 prostate
HCC-2998 colon = tested on: HCC-2998 colon
SK-MEL-28 melanoma = tested on: SK-MEL-28 melanoma
UACC-62 melanoma = tested on: UACC-62 melanoma
SN12C renal = tested on: SN12C renal
BT-549 breast = tested on: BT-549 breast
IGROV1 ovarian = tested on: IGROV1 ovarian
KM12 colon = tested on: KM12 colon
OVCAR-5 ovarian = tested on: OVCAR-5 ovarian

Row | SMILES | GI50 (HOP-62 NSCLC) [µM] | TGI (HOP-62 NSCLC) [µM] | GI50 (PC-3 prostate) [µM] | TGI (PC-3 prostate) [µM] | GI50 (HCC-2998 colon) [µM] | TGI (HCC-2998 colon) [µM] | GI50 (SK-MEL-28 melanoma) | TGI (SK-MEL-28 melanoma) [µM] | GI50 (UACC-62 melanoma) | TGI (UACC-62 melanoma) [µM] | GI50 (SN12C renal) | TGI (SN12C renal) [µM] | GI50 (BT-549 breast) [µM] | TGI (BT-549 breast) [µM] | GI50 (IGROV1 ovarian) | TGI (IGROV1 ovarian) [µM] | GI50 (KM12 colon) [µM] | TGI (KM12 colon) [µM] | GI50 (OVCAR-5 ovarian) [µM] | TGI (OVCAR-5 ovarian) [µM]
1 | COC(=O)/C=C/c1cc(OC(C)=O)c2c(c1)C(C(=O)OC)C(c1ccc(OC(C)=O)c(OC(C)=O)c1)O2 (stereo not given) | 0.438 | > 100 | 0.371 | > 49 | 0.461 | 48.4 | 0.905 µM | 59.7 | 0.298 µM | 21.8 | 0.253 µM | > 42.5 | 0.127 | 2.27 | 0.589 µM | > 100 | 0.334 | 32.1 | 3.42 | > 100
2 | COc1ccc(Cl)cc1NC(=O)c1ccc(NC2=C(Cl)C(=O)N(Cc3ccccc3)C2=O)cc1 | > 100 | > 100 | 52.6 | > 100 | 14.1 | 28.8 | > 100 µM | > 100 | 33.7 µM | > 100 | 23 µM | > 100 | 28.7 | > 100 | > 100 µM | > 100 | 64.4 | > 100 | > 100 | > 100
3 | O=C(Nc1nc(-c2c[nH]c3ccccc23)cs1)c1n[nH]c(=O)c2ccccc12 | 3.72 | 26.6 | 10.2 | > 100 | 18.1 | > 100 | 12.4 µM | 49.2 | 1.45 µM | > 100 | 10.8 µM | > 100 | 3.89 | > 81.2 | 2.01 µM | 34.7 | 1.76 | > 100 | 73 | > 100
4 | COc1ccc(-c2c(C#N)c(N3CCOCC3)nc3[nH]c(=S)[nH]c(=S)c23)cc1OC | 83.2 | > 100 | 40.3 | > 100 | 36 | > 100 | > 100 µM | > 100 | 20.1 µM | 76.1 | 21.7 µM | 91.3 | 32.2 | > 100 | > 100 µM | > 100 | 29.1 | > 100 | > 100 | > 100
5 | COC(=O)c1c(C)cc(OC)c(C/C=C(\C)CCCc2coc(C=C(C)C)c2)c1OC | – | > 100 | – | > 100 | – | > 100 | – | > 100 | – | > 100 | – | > 100 | – | > 100 | – | > 100 | – | > 100 | – | > 100
6 | CSC[C@H](NC(=O)COc1cccc2cnccc12)C(=O)NC(Cc1ccccc1)C(O)C(=O)N1CSC[C@H]1C(=O)NC(C)(C)C (stereo not given in full) | – | > 100 | – | > 100 | – | > 100 | – | > 100 | – | > 100 | – | > 100 | – | > 100 | – | > 100 | – | > 100 | – | > 100
7 | Cc1cc(C(=O)CSC(=S)SC(C)(C)C)ccc1Cl | – | 37.4 | – | 95.8 | – | 30.3 | – | 35.6 | – | 30.1 | – | 43.6 | – | 53.1 | – | > 100 | – | 53.3 | – | 43.9
8 | COc1ccc(/C=C\c2cc(OC)c(OC)c(OC)c2)cc1OCC(=O)O | – | > 100 | – | > 91.3 | – | > 100 | – | > 100 | – | > 100 | – | > 100 | – | > 100 | – | > 100 | – | > 74 | – | > 100
9 | COc1c2occc2c(N)c2ccc(=O)oc12 | – | > 100 | – | > 100 | – | > 100 | – | > 100 | – | > 100 | – | > 100 | – | > 100 | – | > 100 | – | > 100 | – | > 100
10 | COc1ccc(CNc2c3ccccc3nc3ccccc23)cc1F | 4.2 | 20.5 | 3.14 | 12 | 2.07 | 5.27 | 3.84 µM | 13.9 | 2.97 µM | 12.9 | 2.93 µM | 11.9 | 4.88 | 18.3 | 2.82 µM | 10.4 | 3.93 | 15.1 | 3.52 | 13.5
11 | CNCCCNc1ccnc2cc(Cl)ccc12 | 22.4 | > 100 | 17.9 | 57 | 28.7 | > 100 | 15.5 µM | 34.6 | 20.1 µM | 45.7 | 24.6 µM | > 100 | 28.3 | > 100 | 18.8 µM | 63.8 | 19.4 | 67.6 | 21.1 | 72
12 | NC(=O)c1cc(I)ccc1NC(=O)/C=C/c1ccccc1 | 1.12 | 23.8 | 0.605 | > 100 | 1.38 | 30.9 | 1.17 µM | > 86.8 | 0.457 µM | > 77.6 | 0.69 µM | > 63.4 | 2.39 | 27.5 | 0.917 µM | 19.9 | 0.41 | > 37.4 | 3.17 | > 51.8
13 | CN(C)CCN1CCC(Cc2ccccc2)CC1 | > 80 | > 80 | > 80 | > 80 | > 80 | > 80 | > 80 µM | > 80 | > 80 µM | > 80 | > 80 µM | > 80 | > 80 | > 80 | > 80 µM | > 80 | > 80 | > 80 | > 80 | > 80
14 | CC(C)=CCC1=C(O)c2ccccc2C(=O)C1=O | – | > 100 | – | > 100 | – | > 100 | > 100 µM and 23 µM | > 100 | > 100 µM and 13.4 µM | > 100 | > 100 µM and 31.3 µM | > 100 | – | > 100 | > 100 µM and 46.2 µM and 14.8 µM | > 100 | – | > 100 | 56.2 | > 100
